Data taken from EPA's ToxValDB 9.5 (doi:10.2903/j.efsa.2008.147r).

Experiments:
Aphidius rhopalosiphi = conditions: not reported
Apis mellifera = conditions: acute; duration: 48 hours; dermal; mortality
Canidae = conditions: chronic, oral, Dog Other, clinical signs
Daphnia magna = conditions: chronic/long-term; duration: 21 days; reproduction

For `CC[C@H](C)[C@H]1O[C@]2(C=C[C@@H]1C)C[C@@H]1C[C@@H](C/C=C(\C)[C@@H](O[C@H]3C[C@H](OC)[C@@H](O[C@H]4C[C@H](OC)[C@@H](O)[C@H](C)O4)[C@H](C)O3)[C@@H](C)/C=C/C=C3\CO[C@@H]4[C@H](O)C(C)=C[C@@H](C(=O)O1)[C@]34O)O2.CO[C@H]1C[C@H](O[C@H]2[C@H](C)O[C@@H](O[C@@H]3/C(C)=C/C[C@@H]4C[C@@H](C[C@]5(C=C[C@H](C)[C@@H](C(C)C)O5)O4)OC(=O)[C@@H]4C=C(C)[C@@H](O)[C@H]5OC/C(=C\C=C\[C@@H]3C)[C@]54O)C[C@@H]2OC)O[C@@H](C)[C@@H]1O` [Abamectin], the LEL (Aphidius rhopalosiphi; mortality) was 4.32 g/ha, the LEL (Aphidius rhopalosiphi; reproduction) was 4.32 g/ha and the LD50 (Apis mellifera) was 0.0022 µg/piece. The LC50 (Tagia sp.; acute, duration: 14 days, mortality) was 33 mg/kg, the NOEC (Tagia sp.; chronic/long-term) was greater than 0.72 mg/kg and the NOAEL (Canidae; duration: 18 weeks) was 0.25 mg/kg-day. The NOAEL (Canidae; duration: 53 weeks) was 0.25 mg/kg-day, the NOEC (Daphnia magna) was 1e-05 mg/L and the LC50 (Oncorhynchus mykiss; acute, duration: 96 hours, mortality) was 3.6 ng/mL. It also gave an NOEC (Oncorhynchus mykiss; chronic/long-term, duration: 28 days) of 0.00052 mg/L, an LD50 (Anas platyrhynchos; acute, oral, unspecified, mortality) of no more than 77 mg/kg-day and an NOEC (Anas platyrhynchos; reproductive, M) of 1.33 mg/kg-day. The LC50 (Anas platyrhynchos; short-term, oral, feed, mortality) was 48.6 mg/kg-day, the NOAEL (Rattus norvegicus; acute, clinical signs) was 0.5 mg/kg-day and the LD50 (Rattus norvegicus; acute, oral, mortality) was 8.7 mg/kg-day. The NOEC (Rattus norvegicus; chronic) was 0.12 mg/kg-day.
